Experimental data as given in PubChem BioAssay AID248 (DTP/NCI, 2004).
Where “and” joins values, the source holds several entries; their conditions need not be identical. Equal values may be shown once. Toxic doses and inconclusive results are not listed.

Test system: L1210 leukemia ip in BDF1 mice, survival T/C
Assay: NCI In Vivo Anticancer Drug Screen. Data for tumor model L1210 Leukemia (intraperitoneal) in B6D2F1 (BDF1) mice
Conditions: endpoint: mean survival time, higher = longer survival
Outline: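 Value reflects the ratio of survival in compound-treated mice to survival in vehicle-treated controls, with both groups carrying the same transplanted tumor.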

[1] = dose: 50.0 mg/kg/injection, schedule: Q04DX003 (ip), vehicle: Klucel (hydroxypropylcellulose) (HPC)
[2] = dose: 100.0 mg/kg/injection, schedule: Q04DX003 (ip), vehicle: Klucel (hydroxypropylcellulose) (HPC)
[3] = dose: 100.0 mg/kg/injection, schedule: Q04DX003 (ip), vehicle: saline
[4] = dose: 200.0 mg/kg/injection, schedule: Q01DX009 (ip), vehicle: Klucel (hydroxypropylcellulose) (HPC)
[5] = dose: 200.0 mg/kg/injection, schedule: Q04DX003 (ip), vehicle: Klucel (hydroxypropylcellulose) (HPC)
[6] = dose: 100.0 mg/kg/injection, schedule: Q01DX009 (ip), vehicle: Klucel (hydroxypropylcellulose) (HPC)
[7] = dose: 100.0 mg/kg/injection, schedule: Q01DX009 (ip), vehicle: saline with Tween-80
[8] = dose: 100.0 mg/kg/injection, schedule: Q04DX002 (ip), vehicle: saline with Tween-80
[9] = dose: 200.0 mg/kg/injection, schedule: Q01DX009 (ip), vehicle: saline with Tween-80
[10] = dose: 200.0 mg/kg/injection, schedule: Q04DX002 (ip), vehicle: saline with Tween-80
[11] = dose: 400.0 mg/kg/injection, schedule: Q01DX009 (ip), vehicle: saline with Tween-80
[12] = dose: 400.0 mg/kg/injection, schedule: Q04DX002 (ip), vehicle: saline with Tween-80
[13] = dose: 100.0 mg/kg/injection, schedule: Q01DX001 (ip), vehicle: saline
[14] = dose: 200.0 mg/kg/injection, schedule: Q01DX001 (ip), vehicle: saline
[15] = dose: 400.0 mg/kg/injection, schedule: Q01DX001 (ip), vehicle: saline
[16] = dose: 25.0 mg/kg/injection, schedule: Q01DX009 (ip), vehicle: saline with Tween-80
[17] = dose: 50.0 mg/kg/injection, schedule: Q01DX009 (ip), vehicle: saline with Tween-80

CCSc1ncnc2c1ncn2CN1CCOCC1
T/C (dose: 15.0 mg/kg/injection, schedule: Q01DX009 (ip), vehicle: saline): 116 % of control
T/C (dose: 40.0 mg/kg/injection, schedule: Q01DX009 (ip), vehicle: Klucel (hydroxypropylcellulose) (HPC)): 113 % of control
T/C (dose: 45.0 mg/kg/injection, schedule: Q01DX009 (ip), vehicle: saline): 103 % of control and 111 % of control
T/C [1]: 100 % of control
T/C (dose: 60.0 mg/kg/injection, schedule: Q01DX009 (ip), vehicle: Klucel (hydroxypropylcellulose) (HPC)): 116 % of control
T/C (dose: 65.0 mg/kg/injection, schedule: Q01DX009 (ip), vehicle: saline): 103 % of control and 111 % of control
T/C (dose: 66.0 mg/kg/injection, schedule: Q01DX009 (ip), vehicle: saline): 116 % of control
T/C (dose: 100.0 mg/kg/injection, schedule: Q01DX009 (ip), vehicle: saline): 108 % of control
T/C [2]: 105 % of control
T/C [3]: 115 % of control
T/C (dose: 120.0 mg/kg/injection, schedule: Q01DX009 (ip), vehicle: saline): 177 % of control
T/C (dose: 150.0 mg/kg/injection, schedule: Q01DX009 (ip), vehicle: saline): 164 % of control and 168 % of control
T/C (dose: 150.0 mg/kg/injection, schedule: Q04DX003 (ip), vehicle: saline): 111 % of control
T/C (dose: 175.0 mg/kg/injection, schedule: Q01DX009 (ip), vehicle: saline): 151 % of control
T/C [4]: 173 % of control
T/C [5]: 109 % of control
T/C (dose: 220.0 mg/kg/injection, schedule: Q01DX009 (ip), vehicle: saline): 160 % of control
T/C (dose: 220.0 mg/kg/injection, schedule: Q04DX003 (ip), vehicle: saline): 119 % of control
T/C (dose: 225.0 mg/kg/injection, schedule: Q01DX009 (ip), vehicle: saline): 122 % of control
T/C (dose: 265.0 mg/kg/injection, schedule: Q01DX009 (ip), vehicle: saline): 95 % of control
T/C (dose: 330.0 mg/kg/injection, schedule: Q01DX009 (ip), vehicle: saline): 107 % of control
T/C (dose: 400.0 mg/kg/injection, schedule: Q01DX009 (ip), vehicle: saline): 88 % of control

O=[N+]([O-])c1ccc(O)c(N=Cc2ccc(C=Nc3cc([N+](=O)[O-])ccc3O)cc2)c1
T/C [6]: 95 % of control and 86 % of control
T/C [4]: 97 % of control
T/C (dose: 400.0 mg/kg/injection, schedule: Q01DX009 (ip), vehicle: Klucel (hydroxypropylcellulose) (HPC)): 103 % of control and 90 % of control

Cc1ccc(C(=O)/C=C/c2ccc(Cl)c(Cl)c2)c(C)c1
T/C [7]: 92 % of control
T/C [8]: 98 % of control
T/C [9]: 95 % of control
T/C [10]: 91 % of control
T/C [11]: 109 % of control
T/C [12]: 91 % of control

ClC(c1ccccc1)C1(Br)C=c2ccccc2=C1 (stereo not given)
T/C [6]: 97 % of control
T/C [4]: 97 % of control
T/C [5]: 105 % of control and 91 % of control
T/C (dose: 400.0 mg/kg/injection, schedule: Q04DX003 (ip), vehicle: Klucel (hydroxypropylcellulose) (HPC)): 94 % of control and 103 % of control

Nc1nc2c(ncn2C2OC(COP(=O)(O)OC3C(COP(=O)(O)O)OC(n4cnc5c(=O)[nH]c(N)nc54)C3O)C(O)C2O)c(=O)[nH]1 (stereo not given) (tested in a mixture with another compound)
T/C (dose: 2.5 mg/kg/injection, schedule: Q01DX009 (ip), vehicle: other): 108 % of control
T/C (dose: 5.0 mg/kg/injection, schedule: Q01DX009 (ip), vehicle: other): 105 % of control
T/C (dose: 10.0 mg/kg/injection, schedule: Q01DX009 (ip), vehicle: other): 111 % of control

CCCNc1ncnc2c1cnn2C
T/C (dose: 50.0 mg/kg/injection, schedule: Q01DX009 (ip), vehicle: saline): 124 % of control
T/C (dose: 50.0 mg/kg/injection, schedule: Q04DX003 (ip), vehicle: saline): 100 % of control
T/C [13]: 107 % of control
T/C [3]: 102 % of control
T/C [14]: 104 % of control
T/C (dose: 200.0 mg/kg/injection, schedule: Q04DX003 (ip), vehicle: saline): 103 % of control

[CH3][Pb]([CH3])([CH3])[O]C(=O)c1ccc([N+](=O)[O-])cc1
T/C (dose: 12.5 mg/kg/injection, schedule: Q04DX002 (ip), vehicle: Klucel (hydroxypropylcellulose) (HPC)): 97 % of control

CCCCC[Si](C)(C)C
T/C [13]: 103 % of control
T/C [14]: 97 % of control
T/C [15]: 105 % of control

Nc1cnccc1NCCc1cccc(O)c1
T/C (dose: 12.5 mg/kg/injection, schedule: Q01DX009 (ip), vehicle: saline with Tween-80): 97 % of control
T/C [16]: 103 % of control
T/C [17]: 89 % of control
T/C [9]: 88 % of control

CCOC(=O)/C(O)=C\c1nc(OCC)nc(OCC)c1[N+](=O)[O-]
T/C (dose: 93.8 mg/kg/injection, schedule: Q04DX002 (ip), vehicle: Klucel (hydroxypropylcellulose) (HPC)): 95 % of control
T/C (dose: 187.5 mg/kg/injection, schedule: Q04DX002 (ip), vehicle: Klucel (hydroxypropylcellulose) (HPC)): 95 % of control
T/C (dose: 375.0 mg/kg/injection, schedule: Q04DX002 (ip), vehicle: Klucel (hydroxypropylcellulose) (HPC)): 100 % of control

C(=N\N1CCN(/N=C/c2cccc(OCc3ccccc3)c2)CC1)/c1cccc(OCc2ccccc2)c1
T/C [13]: 96 % of control
T/C [14]: 87 % of control
T/C [15]: 90 % of control

NC(N)=N/N=C/c1c[nH]c2ccc(OCc3ccccc3)cc12
T/C (dose: 15.0 mg/kg/injection, schedule: Q01DX Z (ip), vehicle: methylcellulose (MC)): 94 % of control
T/C (dose: 15.0 mg/kg/injection, schedule: Q01DX Z (oral), vehicle: methylcellulose (MC)): 90 % of control
T/C (dose: 30.0 mg/kg/injection, schedule: Q01DX Z (ip), vehicle: methylcellulose (MC)): 96 % of control
T/C (dose: 30.0 mg/kg/injection, schedule: Q01DX Z (oral), vehicle: methylcellulose (MC)): 87 % of control

N#C/C(=C/c1ccccc1)C(=O)O
T/C (dose: 50.0 mg/kg/injection, schedule: Q01DX001 (ip), vehicle: carboxymethylcellulose (CMC)): 87 % of control
T/C (dose: 100.0 mg/kg/injection, schedule: Q01DX001 (ip), vehicle: carboxymethylcellulose (CMC)): 96 % of control
T/C (dose: 200.0 mg/kg/injection, schedule: Q01DX001 (ip), vehicle: carboxymethylcellulose (CMC)): 107 % of control

CCN(CC)C(=O)c1cccc(COc2ccc(N3C(N)=NC(N)=NC3(C)C)cc2Cl)c1
T/C [16]: 107 % of control
T/C [17]: 107 % of control

COc1c(C)c(C)c(OC)c(C(C)O)c1C (stereo not given)
T/C (dose: 100.0 mg/kg/injection, schedule: Q04DX003 (ip), vehicle: other): 92 % of control
T/C (dose: 200.0 mg/kg/injection, schedule: Q04DX003 (ip), vehicle: other): 100 % of control
T/C (dose: 400.0 mg/kg/injection, schedule: Q04DX003 (ip), vehicle: other): 97 % of control

Nc1cc(N)c(N)cc1N
T/C (dose: 9.38 mg/kg/injection, schedule: Q01DX001 (ip), vehicle: saline): 95 % of control
T/C (dose: 18.75 mg/kg/injection, schedule: Q01DX001 (ip), vehicle: saline): 101 % of control
T/C (dose: 37.5 mg/kg/injection, schedule: Q01DX001 (ip), vehicle: saline): 111 % of control

CC1CCc2[nH]c3ccc4ccccc4c3c2C1 (stereo not given)
T/C (dose: 25.0 mg/kg/injection, schedule: Q04DX003 (ip), vehicle: Klucel (hydroxypropylcellulose) (HPC)): 98 % of control
T/C [1]: 95 % of control
T/C [2]: 93 % of control

Cc1ccc2c(c1)C(=NCCCN=C1C(=O)Nc3ccc(C)cc31)C(=O)N2
T/C [7]: 96 % of control
T/C (dose: 100.0 mg/kg/injection, schedule: Q04DX003 (ip), vehicle: saline with Tween-80): 93 % of control
T/C [9]: 91 % of control
T/C (dose: 200.0 mg/kg/injection, schedule: Q04DX003 (ip), vehicle: saline with Tween-80): 102 % of control
T/C [11]: 98 % of control
T/C (dose: 400.0 mg/kg/injection, schedule: Q04DX003 (ip), vehicle: saline with Tween-80): 98 % of control

O=S(=O)(c1ccccc1)n1ccc2ccccc21
T/C [8]: 93 % of control
T/C [10]: 97 % of control
T/C [12]: 97 % of control
